One series addresses hTRPA1 (Homo sapiens, UniProt O75762). Kind of series: Outside-out patch recordings, single channel activity, hTRPA1-expressing HEK293 cells. Type of series: cell-based. The method, then:
Inside-Out and Outside-Out Patch Clamp Recordings on HEK293 Cells. For inside-out recordings in TRPA1-expressing HEK293 cells, pipette resistance was 8-10 MΩ and, the internal solution contains: 126 mM K-gluconate, 10 mM NaCl, 1 mM MgCl2, 10 mM EGTA, 10 mM HEPES, and 2 Na-ATP (adjusted to pH 7.3 with KOH, osmolarity to 295-300 mOsm). The recordings were performed at room temperature in a bath solution (intracellular side) of 140 mM NaCl, 10 mM EGTA, 5 mM KCl, 2 mM CaCl2, 1 mM MgCl2, 10 mM HEPES, 10 mM glucose, adjusted to pH 7.4 with NaOH and osmolarity to 300-310 mOsm (Park et al., Neuron 2014, 82, 47-54). For comparison, outside-out recordings were also performed in TRPA1-expressing HEK293 cells in an extracellular solution of 140 mM NaCl, 5 mM KCl, 2 mM MgCl2, 10 mM HEPES, and 10 mM glucose (adjusted to pH 7.4 with NaOH and osmolarity to 300-310 mOsm). The internal solution contains 140 mM CsCl, 10 mM EGTA, 10 mM HEPES, and mM 2 Mg-ATP, adjusted to pH 7.3 with CsOH. Currents were low-pass filtered at 2 kHz and digitized at a sampling rate of 10 kHz with Digidata-1440A (Axon Instruments). The pClamp10 (Axon Instruments) software was used during experiments and data analysis. Opening and closing transitions of single channels were detected by using 50% of the threshold criterion. All events were carefully checked before the analysis. When superimposed openings were observed, the number of channels in the patch was estimated from the maximal number of superimposed openings. The single-channel open probability (Po) was determined using the following equation: Po=T′/T, where T′ is the total open time for a patch over time T.

For another series, the system named is CTCL mice. The experiment in a line: Mouse CTCL xenograft model of chronic itch. The class given is in vivo. As to conditions: given 20 days after Myla cell inoculation; for effect on CTCL-evoked chronic itch: hsa-miR-711 inhibitor 100 μM, HC030031 200 μM, A967079 50 μM, peptides 2 mM. Here is the method: Mouse CTCL Xenograft Model of Chronic Itch. We developed a murine xenograft model of cutaneous T cell lymphoma (CTCL) using immune-deficient mice (NOD.CB17-Prkdcscid, 8-10 weeks old, male). CD4^+ MyLa cell line was purchased from Sigma (Ca #95051032). The cell line was established from a plaque biopsy of a person with mycosis fungoides stage II by inclusion of IL-2 and IL-4 in the culture medium. CTCL was generated via intradermal injection of CD4^+ Myla cells (1×10^5 cells/μl, 100 μL) on the nape of the neck. Tumor growth was assessed for 40 days by measurements of tumor diameters.
Behavioral Assessment for Scratching (Itch) and Wiping (Pain). Mice were shaved on the cheek or nape after a brief anesthesia with isoflurane. Before experiments, mice were habituated in small plastic chambers (14×18×12 cm) daily for two days. The room temperature and humidity remained stable for all the experiments. […] After the injection, the number of scratches in 60 min was counted. A scratch was counted when a mouse lifted its hind paw to scratch the shaved region and returned the paw to the floor or to the mouth. A bout of wiping was defined as a continuous wiping movement with a forepaw directing at the area of the injection area (Shimada and LaMotte, Pain 2008, 139, 681-687). Scratching and wiping behavior was videoed for 30 min or 60 min using Sony HDR-CX610 camera. The video was subsequently played back offline and the numbers of scratches and wipes were quantified in a blinded manner.
Generation of Myla Stable Cell Line Expressing miR-711 Inhibitor. CD4^+ Myla cells were plated at a density of 2×10^5 cells/mL in 2 mL culture media in 6-well plates. For each well, 20 μL of the MISSION Lenti microRNA Inhibitor (hsa-miR-711) lentivirus (Sigma) with a titer of 2.6×10^7 Tu/mL were added. Cell mixtures were incubated at 37° C. for 48 hr, washed with PBS three times, and re-suspended in fresh culture media, and 24 hr later, 1 μg/mL puromycin was added to the cells to select stably transduced cell populations. We tried to grow and passage the cells as much as necessary (usually 3 days) and maintained selection pressure by keeping 1 μg/mL puromycin in the medium. After 4 weeks, a large number of the cells were killed; the remaining cells retained the expression of the plasmid, which stably integrates into the genome of the targeted cells. These cells were used for inoculation to generate the CTCL model for testing the effects of miR-711 inhibitor on chronic itch and tumor growth.

hTRPA1, sequence (O75762 whole entry): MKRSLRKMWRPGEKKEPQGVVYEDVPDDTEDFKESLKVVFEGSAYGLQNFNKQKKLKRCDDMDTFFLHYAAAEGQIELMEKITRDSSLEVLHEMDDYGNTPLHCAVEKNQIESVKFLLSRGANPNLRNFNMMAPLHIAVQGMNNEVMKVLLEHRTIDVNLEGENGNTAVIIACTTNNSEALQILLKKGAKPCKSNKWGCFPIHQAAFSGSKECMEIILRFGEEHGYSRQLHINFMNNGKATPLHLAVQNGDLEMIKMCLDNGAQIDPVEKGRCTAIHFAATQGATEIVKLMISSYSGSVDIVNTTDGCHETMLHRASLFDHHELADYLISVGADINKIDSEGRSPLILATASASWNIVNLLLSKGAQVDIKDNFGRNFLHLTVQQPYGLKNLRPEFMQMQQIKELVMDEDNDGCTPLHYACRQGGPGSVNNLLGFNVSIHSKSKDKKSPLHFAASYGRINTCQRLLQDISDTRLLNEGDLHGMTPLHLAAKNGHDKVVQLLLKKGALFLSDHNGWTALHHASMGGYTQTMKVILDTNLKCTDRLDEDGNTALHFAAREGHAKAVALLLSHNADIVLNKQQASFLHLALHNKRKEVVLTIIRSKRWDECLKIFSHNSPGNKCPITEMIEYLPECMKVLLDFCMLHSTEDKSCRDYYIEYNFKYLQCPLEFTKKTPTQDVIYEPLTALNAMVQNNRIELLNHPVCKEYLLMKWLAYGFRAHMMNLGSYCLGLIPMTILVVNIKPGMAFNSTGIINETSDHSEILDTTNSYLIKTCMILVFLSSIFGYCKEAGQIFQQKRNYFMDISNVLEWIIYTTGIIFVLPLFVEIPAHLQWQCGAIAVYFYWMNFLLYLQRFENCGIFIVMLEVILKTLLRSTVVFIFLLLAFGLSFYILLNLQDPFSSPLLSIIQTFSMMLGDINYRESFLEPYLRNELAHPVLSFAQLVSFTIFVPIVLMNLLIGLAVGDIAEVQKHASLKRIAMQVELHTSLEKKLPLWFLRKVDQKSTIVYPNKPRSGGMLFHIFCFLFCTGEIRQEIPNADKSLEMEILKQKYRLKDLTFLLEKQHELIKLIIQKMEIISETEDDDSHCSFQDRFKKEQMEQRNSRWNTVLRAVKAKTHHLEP

As to `CCC(=N\O)/C(C)=C/c1ccc(F)cc1` [A967079, (1E,3E)-1-(4-Fluorophenyl)-2-methyl-1-pentene-3-one oxime], on hTRPA1 (outside-out patch), the “block of miR-711-induced single channel activity” value was “completely blocked”. Besides, in the series on CTCL mice, the “effect on CTCL-evoked chronic itch” value is “suppressed”.
With “NH2-FRNELAYPVLTFGQL-COOH (H-FRNELAYPVLTFGQL-OH) [blocking peptide]”, the “duration of reduction of CTCL-evoked chronic itch” value in the series with CTCL mice (2 mM) is on record as “more than 5 hr”. In addition, in the series with CTCL mice, the “effect on CTCL-evoked chronic itch” value is reported as “effectively reduced”.
“miR-711: mmu-miR-711: gggacccggggagagauguaag (SEQ ID NO: 5) (GGGACCCGGGGAGAGAUGUAAG; chemistry not given here)”: the “single-channel opening events, extracellular surface” value with hTRPA1 (bath application, miR-711 10 μM, AITC 50 μM, held at −60 mV) was “elicited single-channel opening events”. Further, in the series with hTRPA1 (miR-711 10 μM versus AITC 50 μM), the “duration of single channel opening (average open time)” value is recorded as “significantly shorter”. The single channel conductance result with hTRPA1 (mmu-miR-711 versus AITC) is “not significant”.

Source of the values: patent publication US20210283163A1, “COMPOSITIONS AND METHODS FOR THE TREATMENT OF ACUTE AND CHRONIC PRURITIS” (Duke University, priority 2018, published 2021).
